Measured values taken from patent EP1117659B1, “SUBSTITUTED 3-CYANOQUINOLINES AS PROTEIN TYROSINE KINASES INHIBITORS” (Wyeth Holdings Corporation, priority 1998, dated 2000).
≈ marks a conversion by molar mass, not a printed value. Where “and” joins values, the source holds several entries; their conditions need not be identical. Equal values may be shown once. Read-outs that look alike come from different tables or passages of the source.

Experiments:
A2780 = test: Inhibition of Cancer Cell Growth as Measured by Cell Number (Sulforhodamine B); type: cell-based; conditions: Homo sapiens, 48 hours exposure
Procedure: (§1) Human tumor cell lines were plated in 96-well plates (250 µl/well, 1-6 x 10^4 cells/ml) in RPMI 1640 medium, containing 5% FBS (Fetal Bovine Serum). […] After 48 hours exposure to test compounds, cells were fixed with trichloroacetic acid, and stained with Sulforhodamine B. After washing with trichloroacetic acid, bound dye was solubilized in 10 mM Tris base and optical density was determined using plate reader. Under conditions of the assay the optical density is proportional to the number of cells in the well. […] The test procedure is described in details by Philip Skehan et. al, J.Natl. Canc. Inst., 82, 1107-1112 (1990). […] Information about some of the cell lines used in these test procedures is available from the American Type Tissue Collection: Cell Lines and Hybridomas, 1994 Reference Guide, 8th Edition.

DDP = test: as above; type: cell-based; conditions: Homo sapiens; 48 hours exposure
Procedure: as §1

[1] = target: T1, Kinase insert Domain containing Receptor (KDR: the catalytic domain of the VEGF receptor) (Homo sapiens, UniProt P35968); test: Inhibition of Kinase insert Domain containing Receptor (KDR), radioactive phosphorylation of Glu:Tyr copolymer; type: biochemical; conditions: IC50, substrate phosphorylation
T1 construct: KDR: the catalytic domain of the VEGF receptor
Procedure: In this standard pharmacological test procedure, KDR protein is mixed, in the presence or absence of a inhibitor compound, with a substrate peptide to be phosphorylated (a copolymer of glutamic acid and tyrosine, E:Y :: 4:1) and other cofactors such as Mg^++ and sodium vanadate (a protein tyrosine phosphatase inhibitor) in an appropriate buffer to maintain pH (7.2). ATP and a radioactive tracer (either P^32- or P^33- labeled ATP) is then add to initiate phosphorylation. After incubation, the radioactive phosphate associated with the acid-insoluble fraction of the assay mixture is then quantified as reflection of substrate phosphorylation. […] Multiple entries for a given compound indication it was tested multiple times.

SK-BR3 = test: Inhibition of Cancer Cell Growth as Measured by Cell Number (Sulforhodamine B); type: cell-based, Human; conditions: Homo sapiens, SK-BR-3, 48 h, 48 hours exposure
Procedure: as §1

MDA-MB-435 = test: as above; type: cell-based, Human; conditions: Homo sapiens, MDA-MB-435, 48 h, 48 hours exposure
Procedure: as §1

SW620 = test: as above; type: cell-based, Human; conditions: Homo sapiens, SW-620, 48 h, 48 hours exposure
Procedure: as §1

A431 = test: as above; type: cell-based, Human; conditions: Homo sapiens, A-431, 48 h, 48 hours exposure
Procedure: as §1

[2] = target: Recombinant human MEK 1 (MAPKK) / recombinant human ERK2 (MAPK) (Mek-Erk) (Homo sapiens, UniProt P28482+Q02750); test: Mitogen Activated Protein Kinase (MAPK) assay, two component coupled Mek-Erk test; type: biochemical
Procedure: To evaluate inhibitors of the MAP (mitogen activated protein) kinase a two component coupled standard pharmacological test procedure, which measures phosphorylation of a serine/threonine residue in an appropriate sequence in the substrate in the presence and absence of a putative inhibitor, was used. Recombinant human MEK 1 (MAPKK) was first used to activate recombinant human ERK2 (MAPK) and the activated MAPK (ERK) was incubated with substrate (MBP peptide or MYC peptide) in the presence of ATP, Mg^+2 and radiolabeled ^33P ATP. The phosphorylated peptide was captured on a P 81 phosphocellulose filter (paper filter or embedded in microtiter plate) washed and counted by scintillation methods.
The peptide substrates used in the assay are MBP, peptide substrate ([sequence]), or synthetic Myc substrate, ([sequence]•5 TFA. The recombinant enzymes used were prepared as GST fusion proteins of human ERK 2 and human MEK 1. Inhibitor samples were prepared as 10X stocks in 10% DMSO and an appropriate aliquot was used to deliver either 10 ug/ml for a single point screening dose or 100, 10, 1, and 0.1 uM final concentration for a dose response curve. Final DMSO concentrations were less than or equal to 1%.
The reaction was run as follows in 50 mM Tris kinase buffer, pH 7.4 in a reaction volume of 50 ul. The appropriate volume of kinase buffer and inhibitor sample was added to the tube. Appropriate dilution of enzyme was delivered to give 2-5 ug recombinant MAPK (Erk ) per tube. The inhibitor was incubated with MAPK (Erk) for 30 min at 0° C. Recombinant Mek (MAPKK) ( 0.5-2.5 ug) or fully activated Mek (0.05-0.1 units) was added to activate the Erk and incubated for 30 min at 30° C. Then substrate and gamma ^33P ATP was were added to give a final concentration of 0.5- 1 mM MBPP or 250-500 uM Myc; 0.2-0.5 uCi gamma P 33 ATP/tube; 50 µM ATP final concentration. Samples were incubated at 30°C for 30 minutes and the reaction was stopped by adding 25 µl of ice cold 10 %TCA .After samples were chilled on ice for 30 min, 20 µl of sample was transferred onto P 81 phosphocellulose filter paper or appropriate MTP with embedded P 81 filter. Filter papers or MTP were washed 2 times with a large volume of 1% acetic acid, then 2 times with water. The filters or MTP were briefly air dried before addition of scintillant and samples were counted in the appropriate scintillation counter set up for reading ^33P isotope.
The raw data was captured as cpm. Sample replicates were averaged and corrected for background count. Mean cpm data was tabulated by group and % inhibition by a test compound was calculated as (corrected cpm control- corrected. cpm sample/control) X 100 = % inhibition.

[3] = target: Epithelial Cell Kinase (ECK) (Homo sapiens, UniProt P29317); test: Inhibition of Epithelial Cell Kinase (ECK), immobilized biotinylated peptide, HRP anti-phosphotyrosine readout; type: biochemical; conditions: IC50, substrate phosphorylation
Procedure: In this standard pharmacological test procedure, a biotinylated peptide substrate is first immobilized on neutravidin-coated microtiter plates. The test drug, the Epithelial Cell Kinase (ECK), Mg^++, sodium vanadate (a protein tyrosine phosphatase inhibitor), and an appropriate buffer to maintain pH (7.2) are then added to the immobilized substrate-containing microtiter wells. ATP is then added to initiate phosphorylation. After incubation, the assay plates are washed with a suitable buffer leaving behind phosphorylated peptide which is exposed to horse radish peroxidase (HRP)-conjugated anti-phosphotyrosine monoclonal antibody. The antibody-treated plates are washed again and the HRP activity in individual wells is quantified as a reflection of degree of substrate phosphorylation. […] Multiple entries for a given compound indication it was tested multiple times.

3T3/c-erbb2 = test: Inhibition of Cancer Cell Growth as Measured by Cell Number (Sulforhodamine B); type: cell-based; conditions: 48 hours exposure
Procedure: as §1

3T3 = test: as above; type: cell-based; conditions: Mus musculus, NIH3T3; 48 hours exposure
Procedure: as §1

[4] = target: T2, epidermal growth factor receptor kinase (EGF-R Kinase, recombinant enzyme; His-tagged cytoplasmic domain of EGFR) (Homo sapiens, UniProt P00533); test: Inhibition of Epidermal Growth Factor Receptor Kinase (EGF-R) using recombinant enzyme, RR-SRC peptide phosphorylation, 33P-ATP; type: biochemical; conditions: for IC50: recombinant enzyme, 90 min at room temperature
T2 construct: EGFR cDNA encoding amino acids 645 - 1186 preceded by Met-Ala-(His)6; Met-Ala-(His)6 (N); made in house; host or cells: Sf9 insect cells, recombinant baculovirus vHcEGFR52
Procedure: Representative test compounds were evaluated for their ability to inhibit the phosphorylation of the tyrosine residue of a peptide substrate catalyzed by the enzyme epidermal growth factor receptor kinase. The peptide substrate (RR-SRC) has the sequence arg-arg-leu-ile-glu-asp-ala-glu-tyr-ala-ala-arg-gly. The enzyme used in this test procedure is the His-tagged cytoplasmic domain of EGFR. A recombinant baculovirus (vHcEGFR52) was constructed containing the EGFR cDNA encoding amino acids 645 - 1186 preceded by Met-Ala-(His)6. Sf9 cells in 100 mm plates were infected at an moi of 10 pfu/cell and cells were harvested 48 h post infection. A cytoplasmic extract was prepared using 1% Triton X-100 and applied to Ni-NTA column. After washing the column with 20 mM imidazole, HcEGFR was eluted with 250 mM imidazole (in 50 mM Na2HPO4, pH 8.0, 300 mM NaCl). Fractions collected were dialyzed against 10 mM HEPES, pH 7.0, 50 mM NaCl, 10% glycerol, lug/mL antipain and leupeptin and 0.1 mM Pefabloc SC. The protein was frozen in dry ice/methanol and stored -70°C.
Test compounds were made into 10 mg/mL stock solutions in 100% dimethylsulfoxide (DMSO). Prior to experiment, stock solutions were diluted to 500 uM with 100% DMSO and then serially diluted to the desired concentration with HEPES buffer (30 mM HEPES pH 7.4).
For the enzyme reaction, 10 uL of each inhibitor (at various concentrations) were added to each well of a 96-well plate. To this was added 3 uL of enzyme (1:10 dilution in 10mM HEPES, pH 7.4 for final cone. of 1:120). This was allowed to sit for 10 min on ice and was followed by the addition of 5 ul peptide (80 uM final cone.), 10ul of 4X Buffer (Table A), 0.25 uL ^33P-ATP and 12 uL H2O. The reaction was allowed to run for 90 min at room temperature and was followed by spotting the entire volume on to precut P81 filter papers. The filter discs were washed 2X with 0.5% phosphoric acid and radioactivity was measured using a liquid scintillation counter.
The inhibition data for representative compounds of the invention are shown below in TABLE 1. […] The % inhibition of the test compound was determined for at least three different concentrations and the IC50 value was evaluated from the dose response curve. […] CPM(control) is in units of counts per minute and was a number expressing the amount of radiolabled ATP (γ-^33P) incorporated into the RR-SRC peptide substrate by the enzyme after 90 minutes at room temperature in the absence of test compound as measured by liquid scintillation counting. The CPM values were corrected for the background counts produced by ATP in the absence of the enzymatic reaction. […]

Chain of Recombinant human MEK 1 (MAPKK) / recombinant human ERK2 (MAPK) (Mek-Erk) (P28482 2-360): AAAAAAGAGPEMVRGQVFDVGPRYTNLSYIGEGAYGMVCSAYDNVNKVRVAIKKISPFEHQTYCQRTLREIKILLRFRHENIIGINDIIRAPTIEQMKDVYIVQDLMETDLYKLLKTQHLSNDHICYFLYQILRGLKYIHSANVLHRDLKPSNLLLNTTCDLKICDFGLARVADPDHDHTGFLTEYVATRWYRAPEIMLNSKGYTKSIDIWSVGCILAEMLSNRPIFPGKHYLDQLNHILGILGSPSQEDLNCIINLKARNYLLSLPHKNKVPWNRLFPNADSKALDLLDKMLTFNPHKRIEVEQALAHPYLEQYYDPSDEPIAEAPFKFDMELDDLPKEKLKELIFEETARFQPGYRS
Chain of Recombinant human MEK 1 (MAPKK) / recombinant human ERK2 (MAPK) (Mek-Erk) (Q02750 whole entry): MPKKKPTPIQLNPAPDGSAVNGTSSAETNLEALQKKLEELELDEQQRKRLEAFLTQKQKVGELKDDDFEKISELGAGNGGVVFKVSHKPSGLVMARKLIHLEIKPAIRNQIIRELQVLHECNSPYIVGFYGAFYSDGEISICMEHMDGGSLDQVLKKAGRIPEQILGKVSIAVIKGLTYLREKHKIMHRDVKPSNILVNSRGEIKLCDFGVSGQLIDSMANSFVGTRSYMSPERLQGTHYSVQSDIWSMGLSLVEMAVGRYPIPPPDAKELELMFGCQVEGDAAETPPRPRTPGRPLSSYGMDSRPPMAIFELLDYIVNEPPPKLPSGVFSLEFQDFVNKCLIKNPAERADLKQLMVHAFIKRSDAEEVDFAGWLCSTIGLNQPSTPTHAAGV
T2 sequence (P00533 669-1210): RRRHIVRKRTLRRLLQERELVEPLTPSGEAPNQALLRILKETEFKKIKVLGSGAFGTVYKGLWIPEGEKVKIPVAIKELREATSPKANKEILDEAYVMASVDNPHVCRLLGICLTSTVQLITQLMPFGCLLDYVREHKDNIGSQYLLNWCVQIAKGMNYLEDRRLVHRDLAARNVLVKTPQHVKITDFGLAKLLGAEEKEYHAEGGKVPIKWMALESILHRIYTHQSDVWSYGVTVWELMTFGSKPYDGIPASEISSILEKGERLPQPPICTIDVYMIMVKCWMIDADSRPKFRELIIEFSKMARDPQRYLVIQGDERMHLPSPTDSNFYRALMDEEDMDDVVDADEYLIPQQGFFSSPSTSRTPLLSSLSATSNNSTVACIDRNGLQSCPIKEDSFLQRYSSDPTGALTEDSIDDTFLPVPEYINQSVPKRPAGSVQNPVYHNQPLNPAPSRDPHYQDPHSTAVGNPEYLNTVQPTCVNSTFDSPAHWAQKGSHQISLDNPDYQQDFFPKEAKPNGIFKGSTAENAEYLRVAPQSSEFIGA
Chain of Epithelial Cell Kinase (ECK) (P29317 24-976, species assumed): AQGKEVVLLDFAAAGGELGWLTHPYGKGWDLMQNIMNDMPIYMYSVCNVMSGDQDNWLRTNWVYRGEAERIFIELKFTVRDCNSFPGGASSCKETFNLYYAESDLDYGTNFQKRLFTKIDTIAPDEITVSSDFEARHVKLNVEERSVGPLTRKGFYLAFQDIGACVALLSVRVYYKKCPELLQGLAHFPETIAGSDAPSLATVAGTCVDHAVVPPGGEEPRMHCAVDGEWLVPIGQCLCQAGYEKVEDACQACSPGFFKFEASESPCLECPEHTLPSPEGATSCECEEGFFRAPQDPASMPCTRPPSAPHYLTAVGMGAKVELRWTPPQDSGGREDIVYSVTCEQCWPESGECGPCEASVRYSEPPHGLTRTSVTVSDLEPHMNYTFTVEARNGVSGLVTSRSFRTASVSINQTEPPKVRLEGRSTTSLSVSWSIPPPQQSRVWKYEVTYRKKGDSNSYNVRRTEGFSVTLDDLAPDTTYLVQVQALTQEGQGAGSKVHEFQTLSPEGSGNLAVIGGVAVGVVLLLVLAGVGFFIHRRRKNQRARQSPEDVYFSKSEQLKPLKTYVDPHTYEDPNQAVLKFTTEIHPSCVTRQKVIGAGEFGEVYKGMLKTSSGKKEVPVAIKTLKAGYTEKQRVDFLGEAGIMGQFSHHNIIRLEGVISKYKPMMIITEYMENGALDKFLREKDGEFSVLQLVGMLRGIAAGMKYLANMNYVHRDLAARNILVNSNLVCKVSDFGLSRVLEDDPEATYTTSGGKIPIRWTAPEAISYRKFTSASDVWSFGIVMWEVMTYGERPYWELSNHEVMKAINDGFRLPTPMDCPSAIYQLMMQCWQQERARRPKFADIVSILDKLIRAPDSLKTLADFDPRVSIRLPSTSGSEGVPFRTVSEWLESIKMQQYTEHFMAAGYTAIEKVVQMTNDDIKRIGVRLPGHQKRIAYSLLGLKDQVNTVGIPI
T1 sequence (P35968 834-1162 limits assumed): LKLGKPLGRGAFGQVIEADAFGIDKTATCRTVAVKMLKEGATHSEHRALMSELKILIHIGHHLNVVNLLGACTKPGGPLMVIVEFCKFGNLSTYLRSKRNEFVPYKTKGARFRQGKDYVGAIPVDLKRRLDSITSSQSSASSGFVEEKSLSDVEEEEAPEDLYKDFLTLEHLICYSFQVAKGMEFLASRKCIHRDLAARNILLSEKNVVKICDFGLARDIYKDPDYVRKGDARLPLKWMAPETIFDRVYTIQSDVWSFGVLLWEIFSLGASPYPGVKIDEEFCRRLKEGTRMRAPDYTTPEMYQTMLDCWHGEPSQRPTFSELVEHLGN

CCOc1cc2ncc(C#N)c(Nc3ccc4c(c3)C(=O)NC4=O)c2cc1OCC [Example 104, 4-(1,3-Dioxo-2,3-dihydro-1H-isoindol-5-ylamino)-6,7-diethoxy-quinoline-3-carbonitrile]
IC50 (A2780): 0.044 µg/mL (≈ 0.109 µM) | IC50 (DDP): 0.107 µg/mL (≈ 0.266 µM) | IC50 [1]: > 74.6 µM | IC50 (SK-BR3): 0.034 µg/mL (≈ 0.0845 µM) | IC50 (MDA-MB-435): 0.021 µg/mL (≈ 0.0522 µM) | IC50 (SW620): 0.207 µg/mL (≈ 0.514 µM) | IC50 (A431): 0.049 µg/mL (≈ 0.122 µM) | IC50 ([2]; read-out: Mek-Erk): 35 µM | IC50 [3]: > 49.7 µM

CCOc1cc2ncc(C#N)c(Nc3ccc4c(=O)[nH][nH]c(=O)c4c3)c2cc1OCC [Example 107, 4-(1,4-Dioxo-1,2,3,4-tetrahydro-phthalazin-6-ylamino)-6,7-diethoxy-quinoline-3-carbonitrile]
IC50 (3T3/c-erbb2): > 5 µg/mL | IC50 (3T3): > 5 µg/mL | IC50 [1]: > 71.9 µM | IC50 (SK-BR3): > 5 µg/mL | IC50 (MDA-MB-435): > 5 µg/mL | IC50 (SW620): > 5 µg/mL | IC50 (A431): > 5 µg/mL | IC50 [3]: > 47.9 µM

CCOc1cc2c(Nc3ccc4cn[nH]c4c3)c(C#N)cnc2cc1OC [Example 126, 6-Ethoxy-4-(1H-indazol-6-ylamino)-7-methoxyquinoline-3-carbonitrile]
IC50 [4]: 0.45 µM | IC50 (3T3/c-erbb2): 4.8 µg/mL (≈ 13.4 µM) | IC50 (3T3): 3.22 µg/mL (≈ 8.96 µM) | IC50 [1]: 8.36 µM and > 2.79 µM | IC50 (SK-BR3): 2.09 µg/mL (≈ 5.83 µM) | IC50 (MDA-MB-435): 2.63 µg/mL (≈ 7.31 µM) | IC50 (SW620): 4.31 µg/mL (≈ 12 µM) | IC50 (A431): 0.786 µg/mL (≈ 2.19 µM) | IC50 ([2]; read-out: Mek-Erk): > 100 µM | IC50 [3]: > 27.9 µM

CCOc1cc2ncc(C#N)c(Nc3ccc4c(c3)C(=O)NCC(=O)N4C)c2cc1OCC [Example 127, 6,7-Diethoxy-4-(1-methyl-2,5-dioxo-2,3,4,5-tetrahydro-1H-benzo[e][1,4]diazepin-7-ylamino)-quinoline-3-carbonitrile]
inhibition at 0.5 µM ([4]; read-out: %Inh @ 0.5 µM): 25% | IC50 [4]: > 1 µM | IC50 (3T3/c-erbb2): > 5 µg/mL | IC50 (3T3): > 5 µg/mL | IC50 [1]: > 67.3 µM | IC50 (SK-BR3): > 5 µg/mL | IC50 (MDA-MB-435): > 5 µg/mL | IC50 (SW620): > 5 µg/mL | IC50 (A431): > 5 µg/mL | IC50 ([2]; read-out: Mek-Erk): > 100 µM | IC50 [3]: > 44.9 µM

CCOc1cc2ncc(C#N)c(Nc3ccc4[nH]nnc4c3)c2cc1OCC [Example 103, 4-(1H-Benzotriazol-5-ylamino)-6,7-diethoxy-quinoline-3-carbonitrile]
IC50 (A2780): 2.39 µg/mL (≈ 6.39 µM) | IC50 (DDP): 2.69 µg/mL (≈ 7.18 µM) | IC50 (SK-BR3): 0.767 µg/mL (≈ 2.05 µM) | IC50 (MDA-MB-435): 0.309 µg/mL (≈ 0.825 µM) | IC50 (SW620): 2.64 µg/mL (≈ 7.04 µM) | IC50 (A431): 1.61 µg/mL (≈ 4.3 µM) | IC50 [3]: > 53.4 µM

CCOc1cc2ncc(C#N)c(Nc3ccc4[nH]c(=O)oc(=O)c4c3)c2cc1OCC [Example 109, 4-(2,4-Dioxo-1,4-dihydro-2H-benzo[d][1,3]oxazin-6-ylamino)-6,7-diethoxy-quinoline-3-carbonitrile]
IC50 (3T3/c-erbb2): 4.62 µg/mL (≈ 11 µM) | IC50 (3T3): > 5 µg/mL | IC50 [1]: 23.9 µM | IC50 (SK-BR3): > 5 µg/mL | IC50 (MDA-MB-435): > 5 µg/mL | IC50 (SW620): 2.92 µg/mL (≈ 6.98 µM) | IC50 (A431): > 5 µg/mL | IC50 ([2]; read-out: Mek-Erk µM): > 100 µM | IC50 [3]: > 47.8 µM
